Source: US20160193131A1, “METHOD FOR REDUCING SURFACE FREE ENERGY AND COMPOSITION HAVING REDUCED SURFACE FREE ENERGY” (KANEKA CORPORATION, priority 2013, published 2016)

Columns and labels:
Type in all cases: physicochemical
[1] = Particle size distribution by dynamic light scattering (micelle formation); details: DLS
Method: In a test tube, surfactin sodium salt (hereinafter, referred to as “SFNa”) and methanol (5 mL) or ethanol (5 mL) were added so that SFNa concentration became 2 mass %. The mixture was stirred using a vortex mixer for 3 minutes. A particle size distribution of the particles which were contained in each obtained dispersion was measured using a dynamic light scattering measuring device (product name: DLS-7000, manufactured by OTSUKA ELECTRON Co., Ltd.). In the measurement, Ar laser (λ=488 nm) was used as a light source and a scattering angle was adjusted to 90°. The result of the methanol dispersion is shown by FIG. 1 and the result of the ethanol dispersion is shown by FIG. 2.
First, an association behavior of SFNa was evaluated by a dynamic light scattering method as the above-described Example 1. As FIG. 4, a micelle having an average particle diameter of 44.8±7.7 nm was observed.

[2] = Surface tension measurement at 25° C. (DY-500); details: for surface tension reducing ability: 2 mass % in 20 vol % ethanol aqueous solution
Method: Then, an experiment for confirmation of effect of reducing surface free energy by SFNa in organic solvent was carried out. Specifically, SFNa and diethylene glycol (10 mL) was added in a test tube so that SFNa concentration became 2 mass % similarly to the above-described Example 1. The mixture was stirred using a vortex mixer for 3 minutes. The dispersion was transferred to a petri dish and left to stand. The surface tension was measured at 25° C. using a high function surface tension measuring device (“DY-500”, manufactured by Kyowa Interface Science Co., Ltd.). In addition, the surface tensions of diethylene glycol only and 2 mass % diethylene glycol solution of sodium dodecyl sulfate, i.e. “SDS”, were similarly measured as control.
An experiment for confirmation of effect of reducing surface free energy by SFNa in a mixed solvent of water and a water-miscible solvent was also carried out. Specifically, SFNa and 20 vol % ethanol aqueous solution (10 mL) was added in a test tube so that SFNa concentration became 2 mass % similarly to the above-described Example 1. The mixture was stirred using a vortex mixer for 3 minutes. In addition, 2 mass % SDS solution was obtained as control by dissolving SDS in 20 vol % ethanol aqueous solution.
In addition, the surface tension reducing ability of SFNa and SDS in 20 vol % ethanol aqueous solution was evaluated at 25° C. similarly to the above-described Example 2.
Furthermore, surface tension was measured similarly to the above-described Example 2 except that the organic solvent was changed from diethylene glycol to dimethylsulfoxide, i.e. DMSO.
An experiment for confirmation of effect of reducing surface free energy by SFNa in a mixed solvent which contained acetone as a water-miscible solvent was also carried out, since the secondary structure formation was confirmed in the above-described Example 5. Specifically, SFNa and 20 vol % or 50 vol % acetone aqueous solution (10 mL) were added in a test tube so that SFNa concentration became 1 mass % similarly to the above-described Example 1. The mixture was stirred using a vortex mixer for 3 minutes. In addition, 1 mass % SDS solution was obtained as control by dissolving SDS in 20 vol % or 50 vol % acetone aqueous solution. The dispersion was transferred to a petri dish and left to stand similarly to the above-described Example 2. The surface tension was measured at 25° C. using a high function surface tension measuring device (“DY-500”, manufactured by Kyowa Interface Science Co., Ltd.).

[3] = Standing for one day at 25° C. and polarization microscope observation of deposits
Method: In addition, the above each dispersion was left to stand for one day at 25° C. […] The depositions were observed using a polarization microscope (“ECLIPSE E600”, manufactured by NIKON CORPORATION). The result is shown as FIG. 3. […] A lamellar liquid crystal may incorporate both of a hydrophilic substance and a lipophilic substance inside, since a lamellar liquid crystal has both of a hydrophilic part and a lipophilic part.

[4] = Secondary structure formation by circular dichroism dispersion meter
Method: Similarly to the above-described Example 1, SFNa and acetone (5 mL) was added in a test tube. The mixture was stirred using a vortex mixer for 3 minutes in order to prepare 0.1 mass %, 0.5 mass % or 1 mass % SFNa solution in acetone. Then, secondary structure formation of SFNa in the prepared acetone solutions was measured using a circular dichroism dispersion meter (“J-820”, manufactured by JASCO Corporation).
Similarly to the above-described Example 5, methanol (1 mL) and SFNa were measured off in a test tube, and the mixture was stirred using a vortex mixer for 3 minutes in order to prepare 0.01 to 1 mass % SFNa solutions in methanol. Then, secondary structure formation of SFNa in the prepared […] solutions was measured using a circular dichroism dispersion meter (“J-820”, manufactured by JASCO Corporation).
Similarly to the above-described Example 5, ethanol (1 mL) and SFNa were measured off in a test tube, and the mixture was stirred using a vortex mixer for 3 minutes in order to prepare 0.05 to 1 mass % SFNa solutions in ethanol. Then, secondary structure formation of SFNa in the prepared ethanol solutions was measured using a circular dichroism dispersion meter (“J-820”, manufactured by JASCO Corporation).
Similarly to the above-described Example 5, tetrahydrofuran (1 mL) and SFNa were measured off in a test tube, and the mixture was stirred using a vortex mixer for 3 minutes in order to prepare 0.5 mass % or 1 mass % SFNa solutions in tetrahydrofuran. Then, secondary structure formation of SFNa in the prepared tetrahydrofuran solutions was measured using a circular dichroism dispersion meter (“J-820”, manufactured by JASCO Corporation).

[5] = 2 mass % in 20 vol % ethanol aqueous solution
[6] = 1 mass % in 20 vol % acetone aqueous solution
[7] = 1 mass % in 50 vol % acetone aqueous solution

With `CCCCCCCCCCCCOS(=O)(=O)[O-].[Na+]` [SDS, sodium dodecyl sulfate, reference compound] the micelle observation [1, 5] was “a micelle cannot be observed”, the “surface tension reducing effect” value [2, 6] was “reduced the surface tension” and the “surface tension reducing effect” value [2, 7] was “could not reduce the surface tension”. For the same compound, the “surface tension reducing ability” value [2] was “could not reduce the surface tension”, the Surface tension ([2]; 2 mass % in DMSO) was 43.4 mN/m and the Surface tension ([2]; 2 mass % in diethylene glycol) was 44.5 mN/m.
In the case of surfactin sodium salt [SFNa], the “average particle diameter of micelle” value [1, 5] is reported as 44.8±7.7 nm, the “average particle diameter of micelle” value ([1]; 2 mass % in ethanol) is reported as 956.8±286.5 nm and the “average particle diameter of micelle” value ([1]; 2 mass % in methanol) is reported as 1035.1±230.7 nm. For the same compound, the “appearance of dispersion after standing” value ([3]; 2 mass % ethanol dispersion) was “there were deposits”, the “polarization microscope observation of deposits” value ([3]; 2 mass % ethanol dispersion) was “a Maltese Cross image which is characteristic of lamellar liquid crystal was observed” and the “appearance of dispersion after standing” value ([3]; 2 mass % methanol dispersion) was “remained transparent”. The “surface tension reducing effect” value [2, 6] was “clearly superior to SDS”, the “surface tension reducing effect” value [2, 7] was “the surface tension could be clearly reduced” and the “surface tension reducing ability” value [2] was “could clearly reduce the surface tension”. For the same compound, the Surface tension ([2]; 2 mass % in DMSO) was 39.2 mN/m, the Surface tension ([2]; 2 mass % in diethylene glycol) was 39.6 mN/m and the “secondary structure formation (CD, negative peak near 200 nm)” value (shortened to “secondary structure formation”) ([4]; 0.01 to 1 mass % in methanol) was “forms secondary structure”. For the same compound, the “secondary structure formation” value ([4]; 0.05 to 1 mass % in ethanol) was “forms secondary structure”, the “secondary structure formation” value ([4]; 0.1, 0.5 or 1 mass % in acetone) was “forms secondary structure” and the “secondary structure formation” value ([4]; 0.5 or 1 mass % in tetrahydrofuran) was “forms secondary structure”.
